Data published in ChEMBL document CHEMBL1671638, “Cloning, expression, and characterization of Babesia gibsoni dihydrofolate reductase-thymidylate synthase: inhibitory effect of antifolates on its catalytic activity and parasite proliferation” (Antimicrob Agents Chemother, 2008).
Activity calls are given as the source filed them. The calls are words filed in the database; no cut-off is given here.

Columns and labels:
[1] = (§1) Inhibition of Babesia gibsoni Dihydrofolate reductase-thymidylate synthase expressed in Escherichia coli BL21
Babesia gibsoni [2] = assay: as §1
Babesia gibsoni [3] = assay: Antiparasitic activity against Babesia gibsoni infected in dog erythrocytes assessed as growth inhibition at 80 uM by Giemsa staining based microscopy; format: functional, organism-based
Babesia gibsoni [4] = assay: Antiparasitic activity against Babesia gibsoni infected in dog erythrocytes assessed as growth inhibition at 20 uM by Giemsa staining based microscopy; format: functional, organism-based
Babesia gibsoni [5] = assay: Antiparasitic activity against Babesia gibsoni infected in dog erythrocytes assessed as growth inhibition at 50 nM by Giemsa staining based microscopy; format: functional, organism-based
Babesia gibsoni [6] = assay: Antiparasitic activity against Babesia gibsoni infected in dog erythrocytes assessed as growth inhibition at 150 nM by Giemsa staining based microscopy; format: functional, organism-based

## COc1cc(Cc2cnc(N)nc2N)cc(OC)c1OC [TRIMETHOPRIM]
[1]
  IC50: 55 nM
Babesia gibsoni [2]
  inhibition: Dose-dependent effect
Babesia gibsoni [3]
  Activity: Active
Babesia gibsoni [4]
  Activity: Active

## CCc1nc(N)nc(N)c1-c1ccc(Cl)cc1 [PYRIMETHAMINE]
[1]
  IC50: 50 nM
Babesia gibsoni [2]
  inhibition: Dose-dependent effect
Babesia gibsoni [3]
  Activity: Active
Babesia gibsoni [4]
  Activity: Active

## CN(Cc1cnc2nc(N)nc(N)c2n1)c1ccc(C(=O)N[C@@H](CCC(=O)O)C(=O)O)cc1 [METHOTREXATE]
Babesia gibsoni [5]
  inhibition: Active
[1]
  IC50: 68.6 nM
Babesia gibsoni [2]
  inhibition: Dose-dependent effect
Babesia gibsoni [6]
  inhibition: Active
